Data: patent US8129532B2, “Amino(oligo)thiophene dyes, preparation thereof, and optical methods of use” (The University of Connecticut, priority 2007, dated 2012)

What was measured:
[1] = One-photon absorption and emission spectra in multilamellar lipid vesicles, water and ethanol; format: physicochemical; details: for 1PF Abs. Max / 1PF Em. Max: one photon, soybean multi-lamellar lipid vesicles
Description: […] The column indicating relative signal change for one-photon fluorescence also lists the excitation light source used and the lower bounds of the long-pass emission detected.
Absorption and emission spectra were obtained for a series of dyes with different acceptors: pyridinium (PY-1261), quinolinium (PY-212), and acridinium (PY-2240).

[2] = tested on: layer V pyramidal neurons; assay: Voltage-sensitive dye imaging of action potentials in intracellularly stained pyramidal neurons in brain slices; format: cell-based, Sprague Dawley rats; details: for dF/F at 658 nm: backpropagating AP, basal dendrites 80-150 μm from soma, %; for dF/F at 658 nm / S/N ratio at 658 nm: laser spot 658 nm
Description: Sprague Dawley rats (P21-42) were anesthetized with isoflurane, decapitated, and the brains were removed with the head immersed in ice-cold, artificial cerebrospinal fluid (ACSF), according to an animal protocol approved by the Center for Laboratory Animal Care, University of Connecticut. Brain slices (300 μm) were cut from frontal lobes in the coronal plane. ACSF contained (in mM) 125 NaCl, 26 NaHCO3, 10 glucose, 2.3 KCl, 1.26 KH2PO4, 2 CaCl2 and 1 MgSO4, pH 7.4. Whole-cell recordings were made from visually identified layer V pyramidal neurons on the medial part of the slice. Intracellular solution contained (in mM) 135 K-gluconate, 2 MgCl2, 3 Na2-ATP, 10 Na2-phosphocreatine, 0.3 Na2-GTP and 10 Hepes (pH 7.3, adjusted with KOH). Electrical signals were amplified with Multiclamp 700A and digitized with two input boards: (1) Digidata Series 1322A (Axon Instruments) at 5 kHz, and (2) Neuroplex (RedShirtImaging) at 2.7 kHz sampling rate. Only cells with a membrane potential more hyperpolarized than −50 mV, and action potential amplitudes exceeding 80 mV (measured from the base line) were included in this study. All experiments were performed on layer 5 cortical pyramidal cells at 34° C.
Blue dyes were stored in ethanol stock solution at −20° C. On the day of the recording blue dyes were dissolved in standard K-gluconate based intracellular solution. A loading pipette was filled with two varieties of the same intracellular solution; one with and one without dye. Dye-free solution was occupying the very tip of the pipette, while the back of the pipette lumen was microloaded with dye-rich solution. The purpose of dye-free solution in the tip of the patch pipette was to prevent dye-leak during the maneuver through brain slice tissue. VSD styryl dyes are lipophilic and bind indiscriminately and irreversibly to all membranes around the neuron of interest. Even a small amount of dye that leaks out of the pipette during the formation of the gigaohm seal, can generate strong fluorescent background. Fluorescent light emanating from surrounding tissue has a devastating effect on dendritic optical signals. Elimination of the background fluorescence is critical for dendritic voltage imaging. How much dye-free solution one should put in the tip depends on time period between the submersion of the patch pipette into the recording chamber and formation of the gigaohm seal. The faster one can perform this maneuver the less dye-free solution she needs to achieve optimal staining.
Blue VSD were injected at room temperature for 25-60 minutes. The filling pipette was carefully pulled out (outside-out patch) and brain slices were left to incubate for 20-120 minutes at room temperature. Just before optical recordings the cells were re-patched with dye-free pipette at the physiological temperature (34° C.).
Voltage-sensitive dye imaging was performed on a Zeiss Axioskope 2FS microscope equipped with NeuroCCD camera (RedShirtImaging). We used Zeiss 40× objective IR-Achroplan 0.80 W. The size of the square visual field captured by NeuroCCD camera was 384×384 um. In the place of the arc lamp (normally used for epi-illumination), we inserted a 200 μm fiber optic guide with a collimator. Laser beam was focused on the other side of the fiber optic guide using a microscope objective-like lens. This arrangement produced a motionless spot of laser light (˜25 μm in diameter) at the object plane. An illuminated section of the brain slice, projected onto the NeuroCCD camera, covered approximately 25 pixels when used with 40× objective lens. At this magnification, one pixel sampled a 4.8×4.8 square in the object plane. A region of interest (ROI) was brought into the laser spot using X-Y microscope platform. The laser beam was interrupted by an electro-programmable shutter (Uniblitz®). Attention was made to limit the exposure time during the recording and positioning of the neuron.

[3] = One-photon fluorescence relative signal change per 100 mV; details: excitation / long-pass emission (nm) given
Description: The left-most data columns of Table 1 are the absorption and emission maxima for one photon fluorescence in soybean multi-lamellar lipid vesicles used to mimic the membrane environment. The column indicating relative signal change for one-photon fluorescence also lists the excitation light source used and the lower bounds of the long-pass emission detected.

[4] = tested on: NIE-115 mouse neuroblastoma; assay: Time-dependence (kinetics) of SHG and 2PF signal change after voltage-clamp step; format: cell-based
Description: For full details of our non-linear imaging microscope, we refer the reader to previously published descriptions. A. C. Millard, P. J. Campagnola, W. Mohler, A. Lewis, and L. M. Loew, “Second Harmonic Imaging Microscopy,” Meth. Enzymol. 361, 47-69 (2003); Millard, A. C., L. Jin, and L. M. Loew, “Second Harmonic Generation Imaging Microscopy with a High Power Ultrafast Fiber Laser,”Commercial and Biomedical Applications of Ultrafast Lasers. 5714-5716, 92-98 (2005); A. C. Millard, L. Jin, M.-D. Wei, J. P. Wuskell, A. Lewis, and L. M. Loew, “Sensitivity of Second Harmonic Generation from Styryl Dyes to Transmembrane Potential,” Biophys. J. 86, 1169-1176 (2004). Our current microscope combines a Fluoview (Olympus) scan-head and an Axiovert (Zeiss) inverted microscope constructed for multiple imaging methodologies including wide-field, one-photon excitation fluorescence imaging, as well as SHG and 2PF imaging. Our laser sources include a Mira (Coherent) Ti:sapphire laser and a Femtopower (Fianium) fiber laser operating at 1064 nm. Millard, A. C., L. Jin, and L. M. Loew, “Second Harmonic Generation Imaging Microscopy with a High Power Ultrafast Fiber Laser,”Commercial and Biomedical Applications of Ultrafast Lasers. 5714-5716, 92-98 (2005). For excitation, we routinely use an IR-Achroplan (Zeiss) 40×, 0.8 NA water-immersion objective though for shorter wavelengths we also use an A-Plan (Zeiss) 40×, 0.65 NA air objective. Fluorescence is imaged (for linear imaging) or collected (for non-linear imaging) back through the excitation objective, while SHG is collected in the forward, transmitted light direction by a condenser, either 0.8 NA or 0.55 NA (Zeiss). For optimal collection, the numerical aperture of the condenser should be at least 1/√2 of the numerical aperture of the excitation objective (L. Moreaux, O. Sandre, S. Charpak, M. Blanchard-Desce, and J. Mertz, “Coherent Scattering in Multi-Harmonic Light Microscopy,” Biophys. J. 80, 1568-1574 (2001); L. Moreaux, O. Sandre, and J. Mertz. “Membrane Imaging by Second Harmonic Generation Microscopy,” J. Opt. Soc. Am. B. 17, 1685-1694 (2000)), though in practice a condenser of slightly lower numerical aperture will often suffice. Since the wavelength of second harmonic light is precisely half that of the excitation light, the choice of filter for SHG imaging is greatly simplified and the primary concern is the blocking of the excitation light that is also transmitted through the sample as well as fluorescence that is emitted forwards.
NIE-115 mouse neuroblastoma were cultured in DMEM with 10% fetal bovine serum and 1% antibiotic-antimycotic (Invitrogen, Carlsbad, Calif.) in a 60 mm plastic dish (353002, Becton Dickinson, Franklin Lakes, N.J.). The culture was maintained at 37° C. with 5% CO2 for a period of 48 hours prior to experimentation.
For experimentation the growth medium was replaced with 3 mL of Earle's Balanced Salt Solution (EBSS, Sigma, St. Louis, Mo.) with 20 mM HEPES (Merck Biosciences AG, Laufelfingen, Switzerland). The internal buffer, injected into the patch pipette, was a potassium aspartate (140 mM, Sigma, St. Louis, Mo.), sodium chloride (5 mM, Sigma, St. Louis, Mo.) and HEPES (10 mM) solution at a pH of 7.35. The pH was adjusted with potassium hydroxide and hydrochloric acid.
For characterizing the voltage-sensitivity of SHG and 2PF, we used a slow (˜0.1 Hz) switching protocol as previously described (A. C. Millard, P. J. Campagnola, W. Mohler, A. Lewis, and L. M. Loew, “Second Harmonic Imaging Microscopy,” Meth. Enzymol. 361, 47-69 (2003); Millard, A. C., L. Jin, and L. M. Loew, “Second Harmonic Generation Imaging Microscopy with a High Power Ultrafast Fiber Laser,” Commercial and Biomedical Applications of Ultrafast Lasers. 5714-5716, 92-98 (2005); A. C. Millard, L. Jin, M.-D. Wei, J. P. Wuskell, A. Lewis, and L. M. Loew, “Sensitivity of Second Harmonic Generation from Styryl Dyes to Transmembrane Potential,” Biophys. J. 86, 1169-1176 (2004)) with a 50 mV step. […]

| 1PF Abs. Max [1] [nm] | 1PF Em. Max [1] [nm] | SMILES | Absorbance ethanol [1] [nm] | Emission ethanol [1] [nm] | Absorbance MLV ([1]; multilamellar lipid vesicles) [nm] | Emission MLV ([1]; multilamellar lipid vesicles) [nm] | Absorbance water [1] [nm] | polarity of optical signal at 532 nm excitation [2] | polarity of optical signal at 658 nm excitation [2] | dF/F at 658 nm [2] [%] | S/N ratio at 658 nm [2] | average amplitude of AP-associated optical signal, 658 nm excitation ([2]; n=4 cells, N=24 measurements) [% ΔF/F] | average size of AP-associated optical signal, 532 nm excitation ([2]; same 4 cells) [% ΔF/F] | average amplitude ratio of AP-associated signal at two wavelengths (658/532 nm) ([2]; same cell and region of interest) | 1PF Change (ΔF/F-100 mv) [3] | SHG kinetics, in words [4] | 2PF signal sensitivity detected between 750-850 nm ([4]; kinetics data, FIG. 3c) [%/50 mV] | 2PF kinetics (time of signal change) ([4]; time resolution 5 ms) [ms] | SHG Kinetics (exponential time constant) ([4]; time resolution 5 ms) [ms] |
| --- | --- | --- | --- | --- | --- | --- | --- | --- | --- | --- | --- | --- | --- | --- | --- | --- | --- | --- | --- |
| – | – | CN(C)c1ccc(/C=C/c2ccc(/C=C/c3cc[n+](CCC[N+](C)(C)C)c4ccccc34)o2)cc1 [JPW-3080] | 630 | 896 | 569 | 730 | 554 | negative optical signals | positive | 5.13 ± 1.20 | 6.20 ± 2.29 | 4.13±0.96 | 0.97±0.26 | 4.39±1.07 | – | – | – | – | – |
| 551 | 691 | CC[N+](CC)(CC)CCC[n+]1ccc(/C=C/c2ccc(-c3ccc(N4CCCC4)s3)s2)cc1 [PY-1274] | – | – | – | – | – | – | – | – | – | – | – | – | 5.0E−002; 620/>715 ΔF/F-100 mv | – | – | – | – |
| 555 | 688 | CCC[N+](CCC)(CCC)CCC[n+]1ccc(/C=C/c2ccc(-c3ccc(N(CC)CC)s3)s2)cc1 [PY-1278] | – | – | – | – | – | – | – | – | – | – | – | – | 7.9E−002; 640/>715 ΔF/F-100 mv | instantaneous | – | – | – |
| 539 | 708 | CCCCN(CCCC)c1ccc2cc(/C=C/C=C/c3cc[n+](CCC[N+](C)(C)C)c4ccccc34)ccc2c1.[Br-].[Br-] [di-4-ANBDQPQ, Di-4-ANBDQPQ, reference compound] | 603 | 818 | 539 | – | 552 | – | – | 1.23 ± 0.66 | 4.97 | – | – | – | 2.0E−001; 618/>715 ΔF/F-100 mv | – | – | – | <5 |
| 528 | 670 | CCCCN(CCCC)c1ccc2cc(/C=C/c3cc[n+](CCC[N+](C)(C)C)c4ccccc34)ccc2c1.[Br-].[Br-] [di-4-ANEQPQ, reference compound] | – | – | – | – | – | – | – | – | – | – | – | – | 1.2E−001; 610/>665 ΔF/F-100 mv | – | – | – | 76 ± 13 |
| 504 | 655 | CCCCN(CCCC)c1ccc2cc(/C=C/C=C/C=C/c3cc[n+](CCC[N+](C)(C)C)c4ccccc34)ccc2c1.[Br-].[Br-] [di-4-ANHTQPQ, reference compound] | – | – | – | – | – | – | – | – | – | – | – | – | 5.4E−002; 630/>715 ΔF/F-100 mv | – | – | – | 34 ± 3 |

| SMILES | 1PF Abs. Max [1] [nm] | 1PF Em. Max [1] [nm] | Absorbance ethanol [1] [nm] | Emission ethanol [1] [nm] | Absorbance MLV ([1]; multilamellar lipid vesicles) [nm] | Emission MLV ([1]; multilamellar lipid vesicles) [nm] | Absorbance water [1] [nm] | polarity of optical signal at 532 nm excitation [2] | polarity of optical signal at 658 nm excitation [2] | dF/F at 658 nm [2] [%] | S/N ratio at 658 nm [2] | average amplitude of AP-associated optical signal, 658 nm excitation ([2]; n=4 cells, N=24 measurements) [% ΔF/F] | average size of AP-associated optical signal, 532 nm excitation ([2]; same 4 cells) [% ΔF/F] | average amplitude ratio of AP-associated signal at two wavelengths (658/532 nm) ([2]; same cell and region of interest) | 1PF Change (ΔF/F-100 mv) [3] | SHG kinetics, in words [4] | 2PF signal sensitivity detected between 750-850 nm ([4]; kinetics data, FIG. 3c) [%/50 mV] | 2PF kinetics (time of signal change) ([4]; time resolution 5 ms) [ms] | SHG Kinetics (exponential time constant) ([4]; time resolution 5 ms) [ms] |
| --- | --- | --- | --- | --- | --- | --- | --- | --- | --- | --- | --- | --- | --- | --- | --- | --- | --- | --- | --- |
| CCN(CC)c1ccc(-c2ccc(-c3ccc(/C=C/c4cc[n+](CCC[N+](CC)(CC)CC)cc4)s3)s2)s1 [PY-1268] | 535 | 714 | 588 | – | 535 | – | 508 | – | – | 5.89 ± 3.41 | 4.44 ± 0.75 | – | – | – | 4.2E−002; 640/>715 ΔF/F-100 mv | instantaneously | 4.28 | ≤ 5 | <5 |
